Measured values reported in the supplement of paper PMC10307832.

What was measured:
Assay in all cases: relative viability (nuclei count vs DMSO), 5 days (fraction); higher = more cells survive
Imatinib = compound: Cc1ccc(NC(=O)c2ccc(CN3CCN(C)CC3)cc2)cc1Nc1nccc(-c2cccnc2)n1 [Imatinib]
Method in brief: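 Following overnight incubation at 37 °C, lung cancer cell lines in 1536-well plates were pinned with five library-drug doses (not always all listed) in √10 steps on vehicle-anchored plates. The cells then spent 5 days without medium change before a combined fix, permeabilisation and Hoechst stain, 4× imaging and MetaXpress nuclear counts. Viability is the treated-to-vehicle ratio of nuclei, taken as the median across plates. Only plates with control CV below 25% and at least one doubling passed.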

Imatinib + OSI-027 = compound: Cc1ccc(NC(=O)c2ccc(CN3CCN(C)CC3)cc2)cc1Nc1nccc(-c2cccnc2)n1 [Imatinib] + COc1cccc2cc(-c3nc([C@H]4CC[C@H](C(=O)O)CC4)n4ncnc(N)c34)[nH]c12 [OSI-027] (partner 0.5 µM)
Method in brief: (§1)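 Relative viability was taken as the ratio of nuclei in treated wells to nuclei in vehicle wells. Lung cancer cell lines in 1536-well plates received compounds by pin tool one day after seeding, either one drug alone or a fixed anchor-drug dose plus five library-drug doses (not always all listed) in √10 steps. Nuclei were counted on 4× images after 5 days of treatment, and values are medians of duplicate plates.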

Imatinib + Luminespib = compound: Cc1ccc(NC(=O)c2ccc(CN3CCN(C)CC3)cc2)cc1Nc1nccc(-c2cccnc2)n1 [Imatinib] + CCNC(=O)c1noc(-c2cc(C(C)C)c(O)cc2O)c1-c1ccc(CN2CCOCC2)cc1 [Luminespib] (partner 0.01 µM)
Method in brief: as §1

Imatinib + Tozasertib = compound: Cc1ccc(NC(=O)c2ccc(CN3CCN(C)CC3)cc2)cc1Nc1nccc(-c2cccnc2)n1 [Imatinib] + Cc1cc(Nc2cc(N3CCN(C)CC3)nc(Sc3ccc(NC(=O)C4CC4)cc3)n2)n[nH]1 [Tozasertib] (partner 0.1 µM)
Method in brief: as §1

Imatinib + Foretinib = compound: Cc1ccc(NC(=O)c2ccc(CN3CCN(C)CC3)cc2)cc1Nc1nccc(-c2cccnc2)n1 [Imatinib] + COc1cc2c(Oc3ccc(NC(=O)C4(C(=O)Nc5ccc(F)cc5)CC4)cc3F)ccnc2cc1OCCCN1CCOCC1 [Foretinib] (partner 0.25 µM)
Method in brief: as §1

Imatinib + Dasatinib = compound: Cc1ccc(NC(=O)c2ccc(CN3CCN(C)CC3)cc2)cc1Nc1nccc(-c2cccnc2)n1 [Imatinib] + Cc1nc(Nc2ncc(C(=O)Nc3c(C)cccc3Cl)s2)cc(N2CCN(CCO)CC2)n1 [Dasatinib] (partner 0.075 µM)
Method in brief: as §1

Imatinib + Phenformin = compound: Cc1ccc(NC(=O)c2ccc(CN3CCN(C)CC3)cc2)cc1Nc1nccc(-c2cccnc2)n1 [Imatinib] + N=C(N)NC(=N)NCCc1ccccc1 [Phenformin] (partner 250 µM)
Method in brief: as §1

Imatinib + Decitabine = compound: Cc1ccc(NC(=O)c2ccc(CN3CCN(C)CC3)cc2)cc1Nc1nccc(-c2cccnc2)n1 [Imatinib] + Nc1ncn([C@H]2C[C@H](O)[C@@H](CO)O2)c(=O)n1 [Decitabine] (partner 2 µM)
Method in brief: as §1

Imatinib + Olaparib = compound: Cc1ccc(NC(=O)c2ccc(CN3CCN(C)CC3)cc2)cc1Nc1nccc(-c2cccnc2)n1 [Imatinib] + O=C(c1cc(Cc2n[nH]c(=O)c3ccccc23)ccc1F)N1CCN(C(=O)C2CC2)CC1 [Olaparib] (partner 8 µM)
Method in brief: as §1

Q: Which results are given for NCI-H1623?
A: relative viability (Imatinib; 0.02 µM): 0.97; relative viability (Imatinib; 0.06325 µM): 0.763; relative viability (Imatinib; 0.2 µM): 0.814; relative viability (Imatinib; 0.6325 µM): 0.956; relative viability (Imatinib; 2 µM): 0.947; relative viability (Imatinib + OSI-027; first compound 0.02 µM): 0.453; relative viability (Imatinib + OSI-027; first compound 0.06325 µM): 0.453; relative viability (Imatinib + OSI-027; first compound 0.2 µM): 0.386; relative viability (Imatinib + OSI-027; first compound 0.6325 µM): 0.431; relative viability (Imatinib + OSI-027; first compound 2 µM): 0.417; relative viability (Imatinib + Luminespib; first compound 0.02 µM): 0.509; relative viability (Imatinib + Luminespib; first compound 0.06325 µM): 0.522; relative viability (Imatinib + Luminespib; first compound 0.2 µM): 0.489; relative viability (Imatinib + Luminespib; first compound 0.6325 µM): 0.569; relative viability (Imatinib + Luminespib; first compound 2 µM): 0.467; relative viability (Imatinib + Tozasertib; first compound 0.02 µM): 0.435; relative viability (Imatinib + Tozasertib; first compound 0.06325 µM): 0.488; relative viability (Imatinib + Tozasertib; first compound 0.2 µM): 0.401; relative viability (Imatinib + Tozasertib; first compound 0.6325 µM): 0.451; relative viability (Imatinib + Tozasertib; first compound 2 µM): 0.416; relative viability (Imatinib + Foretinib; first compound 0.02 µM): 0.872; relative viability (Imatinib + Foretinib; first compound 0.06325 µM): 0.811; relative viability (Imatinib + Foretinib; first compound 0.2 µM): 0.749; relative viability (Imatinib + Foretinib; first compound 0.6325 µM): 0.788; relative viability (Imatinib + Foretinib; first compound 2 µM): 0.894; relative viability (Imatinib + Dasatinib; first compound 0.02 µM): 0.552; relative viability (Imatinib + Dasatinib; first compound 0.06325 µM): 0.539; relative viability (Imatinib + Dasatinib; first compound 0.2 µM): 0.482; relative viability (Imatinib + Dasatinib; first compound 0.6325 µM): 0.537; relative viability (Imatinib + Dasatinib; first compound 2 µM): 0.538; relative viability (Imatinib + Phenformin; first compound 0.02 µM): 0.623; relative viability (Imatinib + Phenformin; first compound 0.06325 µM): 0.601; relative viability (Imatinib + Phenformin; first compound 0.2 µM): 0.535; relative viability (Imatinib + Phenformin; first compound 0.6325 µM): 0.573; relative viability (Imatinib + Phenformin; first compound 2 µM): 0.571

Q: With NCI-H522 as the cell line, how does the relative viability (Imatinib + OSI-027; first compound 0.02 µM) read?
A: 1.34

Q: And the relative viability (Imatinib + OSI-027; first compound 0.06325 µM)?
A: 0.505

Q: What about the relative viability (Imatinib + OSI-027; first compound 2 µM) of the same cell line?
A: 0.666

Q: And the relative viability (Imatinib + Luminespib; first compound 0.02 µM)?
A: 1.11

Q: What about the relative viability (Imatinib + Luminespib; first compound 0.06325 µM) of the same cell line?
A: 1.16

Q: And the relative viability (Imatinib + Luminespib; first compound 0.2 µM)?
A: 1.14

Q: What about the relative viability (Imatinib + Luminespib; first compound 0.6325 µM) of the same cell line?
A: 1.15

Q: What about the relative viability (Imatinib + Luminespib; first compound 2 µM) of the same cell line?
A: 1.11

Q: What about the relative viability (Imatinib + Tozasertib; first compound 0.06325 µM) of the same cell line?
A: 0.501

Q: What about the relative viability (Imatinib + Tozasertib; first compound 0.2 µM) of the same cell line?
A: 0.524

Q: What about the relative viability (Imatinib + Tozasertib; first compound 0.6325 µM) of the same cell line?
A: 0.553

Q: And the relative viability (Imatinib + Tozasertib; first compound 2 µM)?
A: 0.588

Q: And the relative viability (Imatinib + Decitabine; first compound 0.02 µM)?
A: 0.678

Q: And the relative viability (Imatinib + Decitabine; first compound 0.2 µM)?
A: 0.616

Q: What about the relative viability (Imatinib + Decitabine; first compound 0.6325 µM) of the same cell line?
A: 0.577

Q: And the relative viability (Imatinib + Decitabine; first compound 2 µM)?
A: 0.675

Q: What about the relative viability (Imatinib + Olaparib; first compound 0.2 µM) of the same cell line?
A: 0.641

Q: What about the relative viability (Imatinib + Olaparib; first compound 0.6325 µM) of the same cell line?
A: 0.606

Q: And the relative viability (Imatinib + Phenformin; first compound 0.02 µM)?
A: 0.679

Q: And the relative viability (Imatinib + Phenformin; first compound 0.06325 µM)?
A: 0.554

Q: What about the relative viability (Imatinib + Phenformin; first compound 0.2 µM) of the same cell line?
A: 0.626

Q: What about the relative viability (Imatinib + Phenformin; first compound 0.6325 µM) of the same cell line?
A: 0.613
